The values that follow come from US12617831B2 (UNIVERSITE D'ANGERS, priority 2019, dated 2026).

The subject of data set [1] is Murine Raw 264.7 cells. The data set can be described thus: Raw264.7 cell-mediated osteoclast formation in vitro (Example 2). Format: cell-based. The conditions noted are these: 10 ng/ml soluble murine RANKL, 110 h, TRAcP staining. The text has this: TRAcP positive cells, with more than three nuclei, were identified as osteoclasts.
Data set [2] deals with ovariectomy-induced bone loss in mice. The data set can be described thus: Cortical bone strength, 3-point bending at the midshaft femur, ovariectomized mice. The format is in vivo. On the procedure: At 16 weeks of age, ALZET osmotic pumps (model number 2006, Durect Corp., Cupertino, CA) filled with the below saline or peptide were implanted subcutaneously between the two scapula under general anesthesia in 32 mice. Successful filling of pumps was verified by weighting the pump before and after filling. At 20 weeks of age, ALZET osmotic pumps were replaced by similar pumps to ensure delivery for four new weeks. […] This dose and regimen of zoledronic acid was equivalent to the 5 mg infusion approved for the treatment of post-menopausal osteoporosis in humans. At necropsy, femurs and second lumbar vertebras (L2) were cleaned of soft tissue and immediately frozen in a saline-soaked gauze at −20° C. Three-point-bending experiments were performed on femurs after thawing bones at 4° C. overnight. Femurs were loaded to failure in 3-point bending at 2 mm/min using a servohydraulic materials testing system (Instron 5942, Instron, Elancourt, France). The lower span length was of 10 mm. Femurs were oriented so the anterior quadrant was facing down and subjected to tensile loads. Load and displacement of the upper crosshead, which were digitally recorded at a sampling rate of 100 Hz, were measured using a 500 N load cell (Instron). Stiffness, ultimate load, yield load, post-yield displacement (PYD), and work-to-fracture were calculated from the load-displacement curves. PYD was defined as the displacement at failure minus the displacement at yield.

The target of data set [3] is T1, human GLP-2r (Homo sapiens, UniProt O95838).
T1 construct: host or cells: HEK-293
T1 sequence (O95838 1-553): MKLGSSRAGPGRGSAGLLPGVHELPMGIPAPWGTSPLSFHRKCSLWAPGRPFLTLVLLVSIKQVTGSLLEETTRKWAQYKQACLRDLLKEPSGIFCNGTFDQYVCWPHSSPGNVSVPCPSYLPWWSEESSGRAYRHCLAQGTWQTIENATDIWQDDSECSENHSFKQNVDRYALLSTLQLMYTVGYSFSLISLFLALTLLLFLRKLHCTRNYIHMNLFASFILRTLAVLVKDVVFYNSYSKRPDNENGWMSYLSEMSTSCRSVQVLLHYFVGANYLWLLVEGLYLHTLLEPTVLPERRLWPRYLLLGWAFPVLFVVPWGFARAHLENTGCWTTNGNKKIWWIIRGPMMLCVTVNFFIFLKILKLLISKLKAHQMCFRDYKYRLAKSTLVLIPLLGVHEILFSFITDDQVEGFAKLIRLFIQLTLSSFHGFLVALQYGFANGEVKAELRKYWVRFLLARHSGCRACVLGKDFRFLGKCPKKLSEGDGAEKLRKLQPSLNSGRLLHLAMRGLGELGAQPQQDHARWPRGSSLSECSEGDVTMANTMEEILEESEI
Kind of data set: Cyclic AMP assay (FRET, H74 probe), HEK-293 transfected with human GLP-2r. Format: cell-based. As to conditions: HEK 293 transfected only with human GLP-2r, 10^-9 M, 30 min (FIG. 17). How it is done: Human HEK-293 cells were plated at a density of 2×10^5 cells/cm^2 in 4 well microslides (ibidi GmbH, Martinsried, Germany). […] Jalink (Netherland Cancer Institute, Amsterdam, Netherland). […] The image acquisition was performed with a 63 X, 1.4 N.A. oil immersion objective and a Hybrid® detector (Leica) and images were collected after 30 minutes. Donor excitation was made with a 458 nm Ar laser, donor emission was collected between 460-505 nm and acceptor emission between 520-600 nm by setting the SP8 spectrometer accordingly. FRET was expressed as the ratio between donor and acceptor signals.

Data set [4] has as its system MC3T3-E1 cells. The format is cell-based, murine. How it is done:
Increased plasma membrane permeability that occurs during cell death can be visualised using trypan blue, a dye that is excluded from living cells and is incorporated into the cells when they are undergoing death (Bellido and Plotkin (2008) Methods Mol. Biol. 455:51-75).
After 24 h, the cell culture supernatant containing the floating cells was collected and put in previously labelled eppendorf tubes. Each well was washed in PBS before trypsin was added to detach adherent cells. The mixture containing detached adherent cells was collected and pooled in the eppendorf containing the cell culture supernatant. Cells were spun at 1,500 rotation per minute (rpm) for 10 minutes, the supernatant was removed carefully and cells were incubated with trypan blue 0.04% and transferred into a haemocytometer. Living (clear) and dead (blue) cells were counted under light microscope examination and the percentage of dead cells was determined for each condition as follow: % of dead cells=100×(Number of dead cells)/(Number of dead cells+Number of living cells)

For data set [5], the system named is ovariectomy-induced bone loss in mice. Kind of data set: Bone matrix composition by FTIRI at the femur midshaft, ovariectomized mice. Format: in vivo. As to conditions: OVX mice, cortical bone femur, vs vehicle. On the procedure: At 16 weeks of age, ALZET osmotic pumps (model number 2006, Durect Corp., Cupertino, CA) filled with the below saline or peptide were implanted subcutaneously between the two scapula under general anesthesia in 32 mice. Successful filling of pumps was verified by weighting the pump before and after filling. At 20 weeks of age, ALZET osmotic pumps were replaced by similar pumps to ensure delivery for four new weeks. […] This dose and regimen of zoledronic acid was equivalent to the 5 mg infusion approved for the treatment of post-menopausal osteoporosis in humans. After three-point bending experiments, femurs were embedded undecalcified in pMMA at 4° C. One-micrometer cross-sectional sections of the midshaft femur were sandwiched between BaF2 optical windows and Fourier transform infrared imaging (FTIRI) assessment was performed in the posterior quadrant. FTIRI was performed with a vertex 70 spectrometer (Bruker, Ettlingen, Germany) interfaced with a Hyperion 3000 microscope and a focal plane array detector (64×64 pixels) covering a field of view of 180×180 μm. Nine field-of-view were stitched together to allow sufficient bone to be analyzed. Sections were scanned with a spectral resolution of 8 cm^-1 (spectral region 900-2000 cm^-1). Each spectrum was corrected for Mie scattering with the […]5 algorithm (kind gift of Prof Peter Gardner, University of Manchester, UK) prior to be subjected to pMMA subtraction. Evaluation of spectral images was done with a lab-made routine script in Matlab R2016b (The Mathworks, Natick, MA) as described in Aguado et al. (2017) Calcif Tissue Int 100:332-340. FTIR bone parameters ([…] (2012) Methods Mol Biol 816:517-525) calculated were: (1) phosphate/amide ratio (area of v1, v3 phosphate/area amide1); (2) acid phosphate content (intensity ratio 1127 cm^-1/1096 cm^-1) (Spevak et al. (2013) Calcif Tissue Int 92:418-428); (3) mineral crystallinity (intensity ratio 1030 cm^-1/1020 cm^-1), reflecting crystal size and perfection; […] (2001) J Bone Miner Res 16:893-900). For each of the compositional parameters, the mean and full width at half maximum of the pixel distribution (excluding the zero background values) were computed and represented as mean and heterogeneity.

[6] abbreviates: OVX mice, 100 nmoles/kg/day, 8 weeks, vs vehicle.

As usually defined, the IC50 is the concentration that gives 50% inhibition. Low values mean higher potency, high ones lower potency. For the compound `CC[C@H](C)[C@H](NC(=O)[C@H](CO)NC(=O)[C@H](CCSC)NC(=O)[C@H](CC(=O)O)NC(=O)[C@H](CO)NC(=O)CNC(=O)[C@H](Cc1ccccc1)NC(=O)[C@H](CO)NC(=O)CNC(=O)[C@H](CCC(=O)O)NC(=O)CNC(=O)[C@@H](N)Cc1c[nH]cn1)C(=O)N[C@@H](C)C(=O)N[C@@H](CC(C)C)C(=O)N[C@@H](CC(=O)O)C(=O)N[C@@H](CCCCN)C(=O)N[C@@H](CC(C)C)C(=O)N[C@@H](C)C(=O)N[C@@H](C)C(=O)N[C@@H](CCCNC(=N)N)C(=O)N[C@@H](CC(=O)O)C(=O)N[C@@H](Cc1ccccc1)C(=O)N[C@H](C(=O)N[C@@H](CC(N)=O)C(=O)N[C@@H](Cc1c[nH]c2ccccc12)C(=O)N[C@@H](CC(C)C)C(=O)N[C@@H](CC(C)C)C(=O)N[C@@H](CCC(N)=O)C(=O)N[C@H](C(=O)N[C@@H](CCCCN)C(=O)N[C@H](C(=O)N[C@H](C(=O)N[C@@H](CC(=O)O)C(=O)O)[C@@H](C)O)[C@@H](C)CC)[C@@H](C)O)C(C)C` [GL-0001], in data set [1], it took 18.2 ± 5.6 pM to reach half-maximal inhibition (IC50). In data set [2] (OVX mice, 25 nmoles/kg/day, 8 weeks, vs vehicle), this compound showed an increase in work-to-fracture of 37%. For the same compound, in data set [2] (mouse, in vivo), the “increase in post-yield displacement” value amounted to 70% and the “increase in ultimate displacement” value stood at 34%. For the same compound, the “intracellular levels of cAMP” value in data set [3] is on record as “increased intracellular levels of cAMP”. Besides, the osteoblast cell death entry in data set [4] is “does not induce cell death”. Also, in data set [5] (25 nmoles/kg/day), the “increase in acid phosphate content heterogeneity” value is given as 21%, the “increase in collagen maturity heterogeneity” value is given as 28% and the “increase in mean collagen maturity” value worked out at 10%.

For `CC[C@H](C)[C@H](NC(=O)[C@H](CO)NC(=O)[C@H](Cc1ccccc1)NC(=O)[C@H](CC(=O)O)NC(=O)[C@H](CO)NC(=O)CNC(=O)[C@H](Cc1ccccc1)NC(=O)[C@H](CO)NC(=O)CNC(=O)[C@H](CCC(=O)O)NC(=O)CNC(=O)[C@@H](N)Cc1c[nH]cn1)C(=O)N[C@@H](C)C(=O)N[C@@H](CC(C)C)C(=O)N[C@@H](CC(=O)O)C(=O)N[C@@H](CCCCN)C(=O)N[C@@H](CC(C)C)C(=O)N[C@@H](C)C(=O)N[C@@H](C)C(=O)N[C@@H](CCCNC(=N)N)C(=O)N[C@@H](CC(=O)O)C(=O)N[C@@H](Cc1ccccc1)C(=O)N[C@H](C(=O)N[C@@H](CC(N)=O)C(=O)N[C@@H](Cc1c[nH]c2ccccc12)C(=O)N[C@@H](CC(C)C)C(=O)N[C@@H](CC(C)C)C(=O)N[C@@H](CCC(N)=O)C(=O)N[C@H](C(=O)N[C@@H](CCCCN)C(N)=O)[C@@H](C)O)C(C)C` [GL-0007], in data set [2] (setting [6]), the augmentation in work-to-fracture was found to be 33%, the “increase in post-yield displacement” value was 62% and the “increase in ultimate displacement” value was 33%. Also, in data set [5] (100 nmoles/kg/day), the “augmentation of acid phosphate content heterogeneity” value is reported as 18%.
